Assay results taken from patent publication EP2837626A1, “Indolinone derivatives as GRK5 modulators” (Max-Planck-Gesellschaft zur Förderung der Wissenschaften …, priority 2013, dated 2015).
Read-outs that look alike come from different tables or passages of the source.

Key:
full length GRK5 = target: T1, full length GRK5 (Homo sapiens, UniProt P34947); assay: IC50 determination of compounds inhibiting GRK5 by ADP Glo Kinase Assay technology (Promega); assay type: biochemical
T1 construct: 6/2 fold concentrated full length GRK5 (Millipore, #14-714) in reaction buffer is added to each well; purchased Millipore 14-714
T1 sequence (P34947 whole entry): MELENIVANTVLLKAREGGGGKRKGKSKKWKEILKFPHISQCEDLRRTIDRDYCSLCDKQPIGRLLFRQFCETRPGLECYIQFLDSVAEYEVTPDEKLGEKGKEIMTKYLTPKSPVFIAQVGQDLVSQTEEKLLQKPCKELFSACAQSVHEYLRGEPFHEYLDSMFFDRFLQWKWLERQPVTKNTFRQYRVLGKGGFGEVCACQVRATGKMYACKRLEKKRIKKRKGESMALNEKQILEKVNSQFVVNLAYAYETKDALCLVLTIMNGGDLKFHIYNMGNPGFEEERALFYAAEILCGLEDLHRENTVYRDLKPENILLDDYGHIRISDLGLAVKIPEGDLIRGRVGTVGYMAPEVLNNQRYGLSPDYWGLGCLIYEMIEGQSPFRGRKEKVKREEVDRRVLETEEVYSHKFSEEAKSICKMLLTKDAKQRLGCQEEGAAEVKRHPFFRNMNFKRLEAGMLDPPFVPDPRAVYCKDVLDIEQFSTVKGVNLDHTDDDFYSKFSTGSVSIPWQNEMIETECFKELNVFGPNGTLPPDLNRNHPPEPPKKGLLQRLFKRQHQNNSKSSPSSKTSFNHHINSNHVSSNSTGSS

GRK5 = target: T2, GRK5 (Homo sapiens, UniProt P34947); assay: IC50 determination of compounds inhibiting GRK5 by Millipore KinaseProfiler (radiometric filtration binding assay); assay type: biochemical; settings: 2 mg/mL casein, 40 minutes at room temperature
T2 construct: purchased Millipore
T2 sequence (P34947 whole entry): as above
Procedure: IC50 values are determined by a radiometric based filtration binding assay, namely Millipore KinaseProfiler™. GRK5 is incubated with 8 mM MOPS pH 7.0, 0.2 mM EDTA, 2 mg/mL casein, 10 mM MgAcetate and […] (specific activity approx. 500 cpm/pmol, concentration as required). The reaction is initiated by the addition of the MgATP mix. After incubation for 40 minutes at room temperature, the reaction is stopped by the addition of 3 % phosphoric acid solution. 10 µL of the reaction is then spotted onto a P30 filtermat and washed three times for 5 minutes in 75 mM phosphoric acid and once in methanol prior to drying and scintillation counting.

[1] = 20 nM GRK5, 18.7 µM ATP, 10 µM casein, 12 concentrations, triplicates, read-out: GRK5 IC50

SMILES | IC50 (full length GRK5; [1]) [µM] | IC50 (GRK5) [µM] | IC50 (full length GRK5; read-out: GRK5 IC50, 20 nM GRK5, 18.7 µM ATP, 10 µM casein, 12 concentrations, triplicates) [µM]
Cc1[nH]c(/C=C2\C(=O)Nc3ccc(C(=O)O)cc32)c(C)c1C(=O)NCCN1CCCC1 [Compound 2] | < 5 |  | 
CC[C@@H](NC(=O)c1ccc2c(c1)/C(=C/c1[nH]c(C)c(C(=O)NCCN3CCCC3)c1C)C(=O)N2)c1ccccc1 [Compound 6, (3Z)-3-({3,5-dimethyl-4-[(2-pyrrolidin-1-ylethyl)carbamoyl]-1H-pyrrol-2-yl}methylene)-2-oxo-N-[(1R)-1-phenylpropyl]indoline-5-carboxamide] | < 5 |  | 
COc1ccc([C@@H](C)NC(=O)c2ccc3c(c2)/C(=C/Nc2ccc(CN4CCCCC4)cc2)C(=O)N3)cc1 [Compound 70, (3Z)-N-[(1R)-1-(4-methoxyphenyl)ethyl]-2-oxo-3-({[4-(piperidin-1-ylmethyl)phenyl]amino}methylene)indoline-5-carboxamide] |  | < 5 | < 5
CC[C@@H](NC(=O)c1ccc2c(c1)/C(=C/c1[nH]c(C)c(C(=O)N3CCN(C)CC3)c1C)C(=O)N2)c1ccccc1 [Compound 7, (3Z)-3-({3,5-dimethyl-4-[(4-methylpiperazin-1-yl)carbonyl]-1H-pyrrol-2-yl}methylene)-2-oxo-N-[(1R)-1-phenylpropyl]indoline-5-carboxamide] | 5 to 20 |  | 
COc1ccc([C@@H](C)NC(=O)c2ccc3c(c2)/C(=C/c2[nH]c(C)c(C(=O)N4CCN(C)CC4)c2C)C(=O)N3)cc1 [Compound 21, (3Z)-3-({3,5-dimethyl-4-[(4-methylpiperazin-1-yl)carbonyl]-1H-pyrrol-2-yl}methylene)-N-[(1R)-1-(4-methoxyphenyl)ethyl]-2-oxoindoline-5-carboxamide] | < 5 |  | 
CCC(NC(=O)c1ccc2c(c1)/C(=C/c1[nH]c(C)c(C(=O)N3CCN(C)CC3)c1C)C(=O)N2)c1ccc(Cl)cc1 (stereo not shown) [Compound 12, (3Z)-N-[1-(4-chlorophenyl)propyl]-3-({3,5-dimethyl-4-[(4-methylpiperazin-1-yl)carbonyl]-1H-pyrrol-2-yl}methylene)-2-oxoindoline-5-carboxamide] | < 5 | < 5 | 
CCC(NC(=O)c1ccc2c(c1)/C(=C/c1[nH]c(C)c(C(=O)NCCN3CCCC3)c1C)C(=O)N2)c1ccc(F)c(F)c1 (stereo not shown) [Compound 10, (3Z)-N-[1-(3,4-difluorophenyl)propyl]-3-({3,5-dimethyl-4-[(2-pyrrolidin-1-ylethyl)carbamoyl]-1H-pyrrol-2-yl}methylene)-2-oxoindoline-5-carboxamide] | < 5 |  | 
Cc1[nH]c(/C=C2\C(=O)Nc3ccc(C(=O)N[C@H](C)c4ccccc4)cc32)c(C)c1C(=O)N1CCC[C@H]1CN1CCCC1 [Compound 16, (3Z)-3-[(3,5-dimethyl-4-{[(2S)-2-(pyrrolidin-1-ylmethyl)pyrrolidin-1-yl]carbonyl}-1H-pyrrol-2-yl)methylene]-2-oxo-N-[(1R)-1-phenylethyl]indoline-5-carboxamide] |  | < 5 | 
Cc1ccc([C@@H](C)NC(=O)c2ccc3c(c2)/C(=C/c2[nH]c(C)c(C(=O)N4CCN(C)CC4)c2C)C(=O)N3)cc1 [Compound 32, (3Z)-3-({3,5-dimethyl-4-[(4-methylpiperazin-1-yl)carbonyl]-1H-pyrrol-2-yl}methylene)-N-[(1R)-1-(4-methylphenyl)ethyl]-2-oxoindoline-5-carboxamide] | < 5 |  | 
CCC(NC(=O)c1ccc2c(c1)/C(=C/c1[nH]c(C)c(C(=O)NCCN3CCCC3)c1C)C(=O)N2)c1cccc(Cl)c1 (stereo not shown) [Compound 11, (3Z)-N-[1-(3-chlorophenyl)propyl]-3-({3,5-dimethyl-4-[(2-pyrrolidin-1-ylethyl)carbamoyl]-1H-pyrrol-2-yl}methylene)-2-oxoindoline-5-carboxamide] | < 5 |  | 
CCC(NC(=O)c1ccc2c(c1)/C(=C/c1[nH]c(C)c(C(=O)NCCN3CCCC3)c1C)C(=O)N2)c1ccc(Cl)cc1 (stereo not shown) [Compound 13, (3Z)-N-[1-(4-chlorophenyl)propyl]-3-({3,5-dimethyl-4-[(2-pyrrolidin-1-ylethyl)carbamoyl]-1H-pyrrol-2-yl}methylene)-2-oxoindoline-5-carboxamide] | < 5 |  | 
Cc1[nH]c(/C=C2\C(=O)Nc3ccc(C(=O)N[C@H](C)c4ccccc4)cc32)c(C)c1C(=O)N1CCCCC1 [Compound 14, (3Z)-3-{[3,5-dimethyl-4-(piperidin-1-ylcarbonyl)-1H-pyrrol-2-yl]methylene}-2-oxo-N-[(1R)-1-phenylethyl]indoline-5-carboxamide] | < 5 |  | 
Cc1[nH]c(/C=C2\C(=O)Nc3ccc(C(=O)N[C@H](C)c4ccccc4)cc32)c(C)c1C(=O)N1CCN(C)CC1 [Compound 15, (3Z)-3-({3,5-dimethyl-4-[(4-methylpiperazin-1-yl)carbonyl]-1H-pyrrol-2-yl}methylene)-2-oxo-N-[(1R)-1-phenylethyl]indoline-5-carboxamide] | < 5 |  | 

The next lines start with results.

IC50 (full length GRK5; [1]) [µM] | IC50 (GRK5) [µM] | SMILES | IC50 (full length GRK5; read-out: GRK5 IC50, 20 nM GRK5, 18.7 µM ATP, 10 µM casein, 12 concentrations, triplicates) [µM]
< 5 |  | COc1cccc([C@@H](C)NC(=O)c2ccc3c(c2)/C(=C/Nc2ccc(CN4CCCCC4)cc2)C(=O)N3)c1 [Compound 79, (3Z)-N-[(1R)-1-(3-methoxyphenyl)ethyl]-2-oxo-3-({[4-(piperidin-1-ylmethyl)phenyl]amino}methylene)indoline-5-carboxamide] | 
< 5 |  | CC[C@@H](NC(=O)c1ccc2c(c1)/C(=C/Nc1ccc(CN3CCCCC3)cc1)C(=O)N2)c1ccccc1 [Compound 69, (3Z)-2-oxo-N-[(1R)-1-phenylpropyl]-3-({[4-(piperidin-1-ylmethyl)phenyl]amino}methylene)-indoline-5-carboxamide] | 
< 5 |  | C[C@@H](NC(=O)c1ccc2c(c1)/C(=C/Nc1ccc(CN3CCCCC3)cc1)C(=O)N2)c1cccc(Cl)c1 [Compound 80, (3Z)-N-[(1R)-1-(3-chlorophenyl)ethyl]-2-oxo-3-({[4-(piperidin-1-ylmethyl)phenyl]amino}methylene)indoline-5-carboxamide] | 
< 5 |  | CC[C@@H](NC(=O)c1ccc2c(c1)/C(=C/c1[nH]c(C)c(C(=O)NCCN(CC)CC)c1C)C(=O)N2)c1ccccc1 [Compound 61, (3Z)-3-[(4-{[2-(diethylamino)ethyl]carbamoyl}-3,5-dimethyl-1H-pyrrol-2-yl)methylene]-2-oxo-N-[(1R)-1-phenylpropyl]indoline-5-carboxamide] | 
< 5 |  | C[C@@H](NC(=O)c1ccc2c(c1)/C(=C/Nc1ccc(CN3CCCCC3)cc1)C(=O)N2)c1ccccc1 [Compound 78, (3Z)-2-oxo-N-[(1R)-1-phenylethyl]-3-({[4-(piperidin-1-ylmethyl)phenyl]amino}methylene)indoline-5-carboxamide] | 
5 to 20 |  | Cc1cccc(C(C)NC(=O)c2ccc3c(c2)/C(=C/c2[nH]c(C)c(C(=O)N4CCN(C)CC4)c2C)C(=O)N3)c1 (stereo not shown) [Compound 51, (3Z)-3-({3,5-dimethyl-4-[(4-methylpiperazin-1-yl)carbonyl]-1H-pyrrol-2-yl}methylene)-N-[1-(3-methylphenyl)ethyl]-2-oxoindoline-5-carboxamide] | 
< 5 |  | Cc1[nH]c(/C=C2\C(=O)Nc3ccc(C(=O)N[C@H](C)c4ccc(Cl)cc4)cc32)c(C)c1C(=O)N1CCCC1 [Compound 67, (3Z)-N-[(1R)-1-(4-chlorophenyl)ethyl]-3-{[3,5-dimethyl-4-(pyrrolidin-1-ylcarbonyl)-1H-pyrrol-2-yl]methylene}-2-oxoindoline-5-carboxamide] | 
